Assays:
recombinant human MAO-B = target: T1, recombinant human MAO-B (Homo sapiens, UniProt P27338); experiment: In vitro MAO inhibition assay (kynuramine oxidative deamination), IC50; assay type: biochemical; conditions: rhMAO-B, kynuramine 50 μM, steady-state, mean ± SD
T1 construct: purchased BD Biosciences (Bedford, MA, USA)
T1 sequence (P27338 1-520): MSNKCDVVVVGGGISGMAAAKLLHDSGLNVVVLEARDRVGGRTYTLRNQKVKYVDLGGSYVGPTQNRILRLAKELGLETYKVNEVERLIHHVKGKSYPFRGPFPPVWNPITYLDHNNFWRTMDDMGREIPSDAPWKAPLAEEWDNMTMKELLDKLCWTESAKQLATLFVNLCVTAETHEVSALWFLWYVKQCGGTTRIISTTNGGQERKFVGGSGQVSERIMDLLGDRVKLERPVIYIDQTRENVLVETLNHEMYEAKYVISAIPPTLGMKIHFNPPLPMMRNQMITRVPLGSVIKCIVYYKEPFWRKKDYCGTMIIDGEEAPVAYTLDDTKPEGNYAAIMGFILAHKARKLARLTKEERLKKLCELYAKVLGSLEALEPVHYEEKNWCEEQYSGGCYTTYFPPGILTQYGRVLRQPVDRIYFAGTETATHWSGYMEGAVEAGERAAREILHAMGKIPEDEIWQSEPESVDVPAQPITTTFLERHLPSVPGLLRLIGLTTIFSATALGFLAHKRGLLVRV
Description: (§1) A fixed concentration of kynuramine substrate and varying concentrations of the test compounds were used to determine the IC50 values. Kynuramine concentrations for MAO-A and -B assays were 80 μM and 50 μM, respectively. The concentrations of PQ and NPC1161 enantiomers varied from 0.1 μM to 200 μM, for the rhMAO-A and -B enzyme activity inhibition. The test compounds were dissolved in DMSO, diluted in the buffer solution just before the assay, and pre-incubated with the enzyme (MAO-A (5 μg/mL) or -B (12.5 μg/mL)) for 10 min at 37 °C. […] The enzymatic reactions were initiated by the addition of the substrate (kynuramine 80 and 50 μM, for MAO-A and -B, respectively) and incubated for 20 min at 37 °C. The enzyme reactions were terminated by the addition of 78 μL of 2N NaOH to each well. The formation of 4-hydroxyquinoline (the enzyme reaction end product) was recorded fluorometrically on a SpectraMax M5 fluorescence plate reader (Molecular Devices, Sunnyvale, CA, USA) with 320 nm excitation and 380 nm emission wavelengths, using the Soft MaxPro-6 program. The inhibition of enzyme activity was calculated in terms of product formation as a percentage of corresponding controls (enzyme–substrate reaction without inhibitors). Assay controls, to define the interference of the test compounds with the fluorescence measurements, were set up simultaneously, and the enzyme or substrate was added after stopping the reaction.
(§2) The enzyme assays were performed at a steady-state fixed concentration of the substrate kynuramine (80 μM for MAO-A and 50 μM for MAO-B) and different concentrations of the test compounds (PQ and NPC1161 enantiomers). The dose–response enzyme-inhibition curves were generated using Microsoft® Excel (Figure 2), and the IC50 values were computed with XLfit®.

recombinant human MAO-A = target: T2, recombinant human MAO-A (Homo sapiens, UniProt P21397); experiment: as above; assay type: biochemical; conditions: rhMAO-A, kynuramine 80 μM, steady-state, mean ± SD
T2 construct: purchased BD Biosciences (Bedford, MA, USA)
T2 sequence (P21397 1-527): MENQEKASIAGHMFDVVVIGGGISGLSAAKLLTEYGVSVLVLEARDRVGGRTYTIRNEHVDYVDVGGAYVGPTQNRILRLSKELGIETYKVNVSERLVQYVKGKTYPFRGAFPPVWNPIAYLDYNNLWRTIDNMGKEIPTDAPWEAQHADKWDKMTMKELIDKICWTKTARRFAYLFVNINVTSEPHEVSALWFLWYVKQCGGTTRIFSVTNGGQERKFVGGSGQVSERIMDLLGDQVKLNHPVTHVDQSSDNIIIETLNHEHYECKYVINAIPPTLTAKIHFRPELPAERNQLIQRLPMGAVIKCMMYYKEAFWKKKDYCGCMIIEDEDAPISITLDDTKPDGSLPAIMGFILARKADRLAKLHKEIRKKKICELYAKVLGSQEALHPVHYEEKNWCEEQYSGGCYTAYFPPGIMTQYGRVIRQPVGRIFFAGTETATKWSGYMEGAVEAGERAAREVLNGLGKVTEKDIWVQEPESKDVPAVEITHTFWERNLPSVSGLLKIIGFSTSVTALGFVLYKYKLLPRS
Description: as §1, §2

| Compound | IC50 (recombinant human MAO-B) | IC50 (recombinant human MAO-A) |
| --- | --- | --- |
| COc1ccc2c(c1)[nH]c1c(C)nccc12 [Harmine] | 53.1 ± 3.91 µM | – |
| COc1cc(N[C@H](C)CCCN)c2ncccc2c1 [(R)-(−)-Primaquine] | 117 ± 8.82 µM | – |
| COc1cc(NC(C)CCCN)c2ncccc2c1 (racemic) [(RS)-(±)-Primaquine, Primaquine] | 107 ± 1.18 µM | – |

Second part, the molecule after the results:

| IC50 (recombinant human MAO-B) | IC50 (recombinant human MAO-A) | Compound |
| --- | --- | --- |
| 170 ± 15.3 µM | – | COc1cc(N[C@@H](C)CCCN)c2ncccc2c1 [(S)-(+)-Primaquine] |
| 0.95 ± 0.07 µM | 2.7 ± 0.14 µM | COc1cc(C)c2c(Oc3cccc(C(F)(F)F)c3)c(OC)cc(NC(C)CCCN)c2n1 (stereo not drawn) [Tafenoquine, 4-N-[2,6-dimethoxy-4-methyl-5-[3-(trifluoromethyl)phenoxy]quinolin-8-yl]pentane-1,4-diamine] |

Reference: publication PMC8146505, “Enantioselective Interactions of Anti-Infective 8-Aminoquinoline Therapeutics with Human Monoamine Oxidases A and B” (Pharmaceuticals, 2021)
